Measurements reported in article PMC10041525, “New Dual Inhibitors of Bacterial Topoisomerases with Broad-Spectrum Antibacterial Activity and In Vivo Efficacy against Vancomycin-Intermediate Staphylococcus aureus” (Journal of Medicinal Chemistry, 2023).
In brackets after ≈: the same amount, converted by molar mass. Where two headings read alike, the source gives them in different places.

System: 100 A. baumannii strains (50 MDR, 50 non-MDR)
Assay: MIC broth microdilution at IHMA Europe, panel of 100 strains
Format: cell-based
Conditions: Acinetobacter baumannii, read-out: MIC

Cc1[nH]c(C(=O)Nc2nc3c(N4[C@@H]5CC[C@H]4COC5)cc(C(=O)O)cc3s2)c(Cl)c1Cl [7h, 4-((1R,5S)-3-Oxa-8-azabicyclo[3.2.1]octan-8-yl)-2-(3,4-dichloro-5-methyl-1H-pyrrole-2-carboxamido)benzo[d]thiazole-6-carboxylic Acid]
MIC (A. baumannii IHMA 1769393, Lithuania 2018, Non-MDR): 2 µg/mL (≈ 4.15 µM)
MIC (A. baumannii IHMA 1769782, Israel 2018, MDR): 2 µg/mL (≈ 4.15 µM)
MIC (A. baumannii IHMA 1769910, Israel 2018, Non-MDR): 4 µg/mL (≈ 8.31 µM)
MIC (A. baumannii IHMA 1790317, Czech Republic 2018, Non-MDR): 2 µg/mL (≈ 4.15 µM)
MIC (A. baumannii IHMA 1790916, Romania 2018, Non-MDR): 1 µg/mL (≈ 2.08 µM)
MIC (A. baumannii IHMA 1791877, Israel 2018, MDR): 2 µg/mL (≈ 4.15 µM)
MIC (A. baumannii IHMA 1792961, Jordan 2018, MDR): 2 µg/mL (≈ 4.15 µM)
MIC (A. baumannii IHMA 1795669, Tunisia 2018, Non-MDR): 1 µg/mL (≈ 2.08 µM)
MIC (A. baumannii IHMA 1814276, Lebanon 2018, MDR): 2 µg/mL (≈ 4.15 µM)
MIC (A. baumannii IHMA 1815198, Kuwait 2018, MDR): 2 µg/mL (≈ 4.15 µM)
MIC (A. baumannii IHMA 1815856, Israel 2018, MDR): 2 µg/mL (≈ 4.15 µM)
MIC (A. baumannii IHMA 1821468, South Africa 2018, Non-MDR): 2 µg/mL (≈ 4.15 µM)
MIC (A. baumannii IHMA 1829500, Georgia 2018, Non-MDR): 2 µg/mL (≈ 4.15 µM)
MIC (A. baumannii IHMA 1830924, United Kingdom 2018, Non-MDR): 4 µg/mL (≈ 8.31 µM)
MIC (A. baumannii IHMA 1849819, Kuwait 2018, MDR): 4 µg/mL (≈ 8.31 µM)
MIC (A. baumannii IHMA 1849829, Kuwait 2018, Non-MDR): 4 µg/mL (≈ 8.31 µM)
MIC (A. baumannii IHMA 1857118, Slovenia 2018, Non-MDR): 4 µg/mL (≈ 8.31 µM)
MIC (A. baumannii IHMA 1863631, France 2018, Non-MDR): 2 µg/mL (≈ 4.15 µM)
MIC (A. baumannii IHMA 1870054, United States 2018, Non-MDR): 2 µg/mL (≈ 4.15 µM)
MIC (A. baumannii IHMA 1884428, Italy 2018, Non-MDR): 4 µg/mL (≈ 8.31 µM)
MIC (A. baumannii IHMA 1884990, Germany 2018, Non-MDR): 1 µg/mL (≈ 2.08 µM)
MIC (A. baumannii IHMA 1900538, Turkey 2018, Non-MDR): 4 µg/mL (≈ 8.31 µM)
MIC (A. baumannii IHMA 1913773, Kenya 2018, Non-MDR): 2 µg/mL (≈ 4.15 µM)
MIC (A. baumannii IHMA 1926285, Qatar 2018, Non-MDR): 2 µg/mL (≈ 4.15 µM)
MIC (A. baumannii IHMA 1926288, Qatar 2018, MDR): 1 µg/mL (≈ 2.08 µM)
MIC (A. baumannii IHMA 1957343, Portugal 2019, Non-MDR): 4 µg/mL (≈ 8.31 µM)
MIC (A. baumannii IHMA 1963732, Turkey 2019, MDR): 2 µg/mL (≈ 4.15 µM)
MIC (A. baumannii IHMA 1967860, Spain 2019, Non-MDR): 8 µg/mL (≈ 16.6 µM)
MIC (A. baumannii IHMA 1971673, Latvia 2019, MDR): 2 µg/mL (≈ 4.15 µM)
MIC (A. baumannii IHMA 1975075, Israel 2019, Non-MDR): 2 µg/mL (≈ 4.15 µM)
MIC (A. baumannii IHMA 1977077, Kuwait 2019, Non-MDR): 4 µg/mL (≈ 8.31 µM)
MIC (A. baumannii IHMA 1983151, Greece 2019, MDR): 2 µg/mL (≈ 4.15 µM)
MIC (A. baumannii IHMA 1984665, Lithuania 2019, MDR): 2 µg/mL (≈ 4.15 µM)
MIC (A. baumannii IHMA 1986678, Turkey 2019, Non-MDR): 4 µg/mL (≈ 8.31 µM)
MIC (A. baumannii IHMA 1986738, Turkey 2019, MDR): 2 µg/mL (≈ 4.15 µM)
MIC (A. baumannii IHMA 1987162, Croatia 2019, MDR): 2 µg/mL (≈ 4.15 µM)
MIC (A. baumannii IHMA 1993615, Turkey 2019, MDR): 1 µg/mL (≈ 2.08 µM)
MIC (A. baumannii IHMA 1994284, Italy 2019, MDR): 2 µg/mL (≈ 4.15 µM)
MIC (A. baumannii IHMA 1995161, Czech Republic 2019, Non-MDR): 2 µg/mL (≈ 4.15 µM)
MIC (A. baumannii IHMA 1997936, Morocco 2019, Non-MDR): 2 µg/mL (≈ 4.15 µM)
MIC (A. baumannii IHMA 1999178, Belgium 2019, Non-MDR): 2 µg/mL (≈ 4.15 µM)
MIC (A. baumannii IHMA 2003279, Turkey 2019, MDR): 4 µg/mL (≈ 8.31 µM)
MIC (A. baumannii IHMA 2014367, Jordan 2019, Non-MDR): 1 µg/mL (≈ 2.08 µM)
MIC (A. baumannii IHMA 2014931, South Africa 2019, Non-MDR): 4 µg/mL (≈ 8.31 µM)
MIC (A. baumannii IHMA 2019315, Romania 2019, Non-MDR): 4 µg/mL (≈ 8.31 µM)
MIC (A. baumannii IHMA 2020360, Croatia 2019, MDR): 2 µg/mL (≈ 4.15 µM)
MIC (A. baumannii IHMA 2031511, Greece 2019, Non-MDR): 1 µg/mL (≈ 2.08 µM)
MIC (A. baumannii IHMA 2031524, Greece 2019, MDR): 2 µg/mL (≈ 4.15 µM)
MIC (A. baumannii IHMA 2034657, Tunisia 2019, Non-MDR): 4 µg/mL (≈ 8.31 µM)
MIC (A. baumannii IHMA 2035089, Serbia 2019, MDR): 2 µg/mL (≈ 4.15 µM)
MIC (A. baumannii IHMA 2035134, Serbia 2019, Non-MDR): 2 µg/mL (≈ 4.15 µM)
MIC (A. baumannii IHMA 2038976, Hungary 2019, MDR): 2 µg/mL (≈ 4.15 µM)
MIC (A. baumannii IHMA 2051503, Serbia 2019, MDR): 2 µg/mL (≈ 4.15 µM)
MIC (A. baumannii IHMA 2058329, Slovenia 2019, Non-MDR): 4 µg/mL (≈ 8.31 µM)
MIC (A. baumannii IHMA 2065587, France 2019, Non-MDR): 1 µg/mL (≈ 2.08 µM)
MIC (A. baumannii IHMA 2099294, United Kingdom 2019, Non-MDR): 2 µg/mL (≈ 4.15 µM)
MIC (A. baumannii IHMA 2129256, Qatar 2019, Non-MDR): 4 µg/mL (≈ 8.31 µM)
MIC (A. baumannii IHMA 2154584, Israel 2020, MDR): 2 µg/mL (≈ 4.15 µM)
MIC (A. baumannii IHMA 2155340, Kenya 2020, MDR): 2 µg/mL (≈ 4.15 µM)
MIC (A. baumannii IHMA 2156634, Turkey 2020, MDR): 2 µg/mL (≈ 4.15 µM)
MIC (A. baumannii IHMA 2156709, Turkey 2020, MDR): 2 µg/mL (≈ 4.15 µM)
MIC (A. baumannii IHMA 2157614, Australia 2020, Non-MDR): 4 µg/mL (≈ 8.31 µM)
MIC (A. baumannii IHMA 2177232, Lithuania 2020, MDR): 4 µg/mL (≈ 8.31 µM)
MIC (A. baumannii IHMA 2177489, Lithuania 2020, MDR): 2 µg/mL (≈ 4.15 µM)
MIC (A. baumannii IHMA 2178574, Ukraine 2020, Non-MDR): 4 µg/mL (≈ 8.31 µM)
MIC (A. baumannii IHMA 2180134, Malaysia 2020, Non-MDR): 2 µg/mL (≈ 4.15 µM)
MIC (A. baumannii IHMA 2180142, Malaysia 2020, MDR): 2 µg/mL (≈ 4.15 µM)
